Where a name gives a salt, the structure may show the parent alone.

IgE-Tb / FcεRIα-Y131A-AF488, sequence (P01854 1-427 limits assumed, stated change not applied): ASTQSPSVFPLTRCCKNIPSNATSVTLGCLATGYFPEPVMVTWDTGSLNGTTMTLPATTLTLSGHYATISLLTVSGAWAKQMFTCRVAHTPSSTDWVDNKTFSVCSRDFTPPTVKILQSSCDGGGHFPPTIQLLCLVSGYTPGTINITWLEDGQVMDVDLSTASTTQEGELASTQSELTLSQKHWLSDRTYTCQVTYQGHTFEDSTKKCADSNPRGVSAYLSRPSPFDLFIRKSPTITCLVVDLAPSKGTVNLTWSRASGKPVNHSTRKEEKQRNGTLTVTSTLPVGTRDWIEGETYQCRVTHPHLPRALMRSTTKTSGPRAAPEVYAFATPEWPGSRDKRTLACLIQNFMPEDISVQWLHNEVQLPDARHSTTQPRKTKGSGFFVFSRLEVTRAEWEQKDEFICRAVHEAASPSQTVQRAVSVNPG

The test concerns the target IgE-Tb / FcεRIα-Y131A-AF488 (Homo sapiens, UniProt P01854). Description: IgE-Tb / FcεRIα-Y131A-AF488 FRET assay (protocol for examples 1 to 233). The format is binding. The conditions noted are these: examples 1 to 233: 5 nM IgE-Tb, 25 nM FcεRIα-Y131A-AF488, incubated 2 hours at room temperature; read-out: Y131A FRET IC50 range. On the procedure: For examples 1 to 233, the assay was conducted according to the following: Each assay reaction was conducted in a volume of 25 μl in a 384-well half-volume plate. 10 point compound serial dilutions (3-fold) were generated in DMSO at a concentration of ×50 that of the final assay concentration (FAC). Compound solutions were then prepared by IgE-Tb diluting 10-fold in assay buffer. For the assay, 5 μl of diluted compound was added to 10 μl of, followed by addition of 10 μl FcεRIα-Y131A-AF488. FRET reagents FACs were 5 nM IgE-Tb, 25 nM FcεRIα-Y131A-AF488. Usually the top FAC of compound in the assay was 10 μM. The final DMSO concentration was 2%. The minimum signal (MIN) was measured by adding 5l unlabelled FcεRIα at 1 μM (FAC=200 nM) to the FRET reagents. The maximum FRET signal (MAX) was measured in wells containing FRET reagents but no compound. The assay was incubated for 2 hours at room temperature, protected from light and evaporation, and with gentle agitation.
Measurement of FRET for each well was carried out by exciting at 330 nm and measuring emission at 495/520 nm using an Envision plate reader (Perkin Elmer). FRET ratio was calculated as follows: Emission at 520/Emission at 495×1000.
The FRET ratio was used for the data analysis.
Z′ was calculated as follows (σ=standard deviation and μ=mean): 1−((3×σMAX)+(3×σMIN))/(μMAX−μMIN)
Z′ above 0.5 was considered a good assay.
Background signal (MIN) was subtracted from all wells. Using the background subtracted values, the percent inhibition by compound in each test-well was calculated as follows: 100−Test-well FRET ratio/MAX FRET ratio×100.
Percent inhibition was plotted against compound concentration. IC50 values for each compound were determined using four parameter logistic fit model using the XLFIT5 software package.
As usually defined, the IC50 is the concentration at which inhibition is half-maximal. Take `CC(C)(C)OC(=O)Nc1cnnn1[C@H]1CCc2sc(NC(=O)C3CC3)c(C(=O)NCC3CC3)c2C1` (stereo in doubt) [Example 140, tert-Butyl N-[3-[2-(cyclopropanecarbonylamino)-3-(cyclopropylmethylcarbamoyl)-4,5,6,7-tetrahydrobenzothiophen-5-yl]triazol-4-yl]carbamate]: the IC50 is below 1 µM.

In the case of `Cc1cnc(Nc2nncn2C2CCc3sc(NC(=O)C4CC4)c(C(=O)NCC4CC4)c3C2)c(C)n1` (stereo in doubt) [Example 178, (5S)-2-(Cyclopropanecarbonylamino)-N-(cyclopropylmethyl)-5-[3-[(3,5-dimethylpyrazin-2-yl)amino]-1,2,4-triazol-4-yl]-4,5,6,7-tetrahydrobenzothiophene-3-carboxamide], the IC50 was below 1 µM.

Regarding `CNC(=O)c1c(NC(=O)C2CC2)sc2c1CCSC2` [Example 1, 2-(Cyclopropanecarbonylamino)-N-methyl-5,7-dihydro-4H-thieno[2,3-c]thiopyran-3-carboxamide], the 50% inhibitory concentration (IC50) lay within 1 to 10 µM.

For `CNC(=O)c1c(NC(=O)C2CC2)sc2c1CCCO2` [Example 2, 6-(Cyclopropanecarbonylamino)-N-methyl-3,4-dihydro-2H-thieno[2,3-b]pyran-5-carboxamide], the IC50 was in the range of 10 to 50 µM.

Consider `O=C(NCC1CC1)c1c(NC(=O)C2CC2)sc2c1CNCC2` [Example 3, 2-(Cyclopropanecarbonylamino)-N-(cyclopropylmethyl)-4,5,6,7-tetrahydrothieno[3,2-c]pyridine-3-carboxamide; hydrochloride], for which the IC50 was in the range of 10 to 50 µM.

On to `CS(=O)(=O)N1CCc2sc(NC(=O)C3CC3)c(C(=O)NCC3CC3)c2C1` [Example 4, 2-(Cyclopropanecarbonylamino)-N-(cyclopropylmethyl)-5-methylsulfonyl-6,7-dihydro-4H-thieno[3,2-c]pyridine-3-carboxamide], for which the IC50 lay in the range of 10 to 50 µM.

With `CC(=O)N1CCc2sc(NC(=O)C3CC3)c(C(=O)NCC3CC3)c2C1` [Example 5, 5-Acetyl-2-(cyclopropanecarbonylamino)-N-(cyclopropylmethyl)-6,7-dihydro-4H-thieno[3,2-c]pyridine-3-carboxamide], the IC50 is 10 to 50 µM.

Take `CS(=O)(=O)N1CCCc2c1sc(NC(=O)C1CC1)c2C(=O)NCC1CC1` [Example 6, 2-(Cyclopropanecarbonylamino)-N-(cyclopropylmethyl)-7-methylsulfonyl-5,6-dihydro-4H-thieno[2,3-b]pyridine-3-carboxamide]: the IC50 lay in the range of 1 to 10 µM.

In the case of `CC(=O)N1CCCc2c1sc(NC(=O)C1CC1)c2C(=O)NCC1CC1` [Example 7, 7-Acetyl-2-(cyclopropanecarbonylamino)-N-(cyclopropylmethyl)-5,6-dihydro-4H-thieno[2,3-b]pyridine-3-carboxamide], the IC50 was in the range of 10 to 50 µM.

`COCC(=O)N1CCc2sc(NC(=O)C3CC3)c(C(=O)NCC3CC3)c2C1` [Example 8, 2-(Cyclopropanecarbonylamino)-N-(cyclopropylmethyl)-5-(2-methoxyacetyl)-6,7-dihydro-4H-thieno[3,2-c]pyridine-3-carboxamide]: the IC50 lay within 10 to 50 µM.

As for `O=C(NCC1CC1)c1c(NC(=O)C2CC2)sc2c1CN(C(=O)Cc1ccccc1)CC2` [Example 9, 2-(Cyclopropanecarbonylamino)-N-(cyclopropylmethyl)-5-(2-phenylacetyl)-6,7-dihydro-4H-thieno[3,2-c]pyridine-3-carboxamide], the IC50 was in the range of 10 to 50 µM.

Turning to `CC(C)(C)OC(=O)NCCN1CCc2sc(NC(=O)C3CC3)c(C(=O)NCC3CC3)c2C1` [Example 10, Tert-butyl N-[2-[2-(cyclopropanecarbonylamino)-3-(cyclopropylmethylcarbamoyl)-6,7-dihydro-4H-thieno[3,2-c]pyridin-5-yl]ethyl]carbamate], the IC50 lay in the range of 10 to 50 µM.

For `O=C(NCC1CC1)c1c(NC(=O)C2CC2)sc2c1CN(CCc1ccccc1)CC2` [Example 11, 2-(Cyclopropanecarbonylamino)-N-(cyclopropylmethyl)-5-(2-phenylethyl)-6,7-dihydro-4H-thieno[3,2-c]pyridine-3-carboxamide], the IC50 lay in the range of 10 to 50 µM.

Consider `COC(=O)CN1CCc2sc(NC(=O)C3CC3)c(C(=O)NCC3CC3)c2C1` [Example 12, Methyl 2-[2-(cyclopropanecarbonylamino)-3-(cyclopropylmethylcarbamoyl)-6,7-dihydro-4H-thieno[3,2-c]pyridin-5-yl]acetate], for which the IC50 fell in the range of 10 to 50 µM.

In the case of `O=C(Nc1sc2c(c1S(=O)(=O)NCC1CC1)CCCC2)C1CC1` [Example 15, N-[3-(Cyclopropylmethylsulfamoyl)-4,5,6,7-tetrahydrobenzothiophen-2-yl]cyclopropanecarboxamide], the concentration for half-maximal inhibition (IC50) is below 1 µM.

As to `CCCNS(=O)(=O)c1c(NC(=O)C2CC2)sc2c1CCCC2` [Example 16, N-[3-(Propylsulfamoyl)-4,5,6,7-tetrahydrobenzothiophen-2-yl]cyclopropanecarboxamide], the IC50 is below 1 µM.

As to `CC(C)CNS(=O)(=O)c1c(NC(=O)C2CC2)sc2c1CCCC2` [Example 17, N-[3-(Isobutylsulfamoyl)-4,5,6,7-tetrahydrobenzothiophen-2-yl]cyclopropanecarboxamide], the IC50 is below 1 µM.

As to `CC(C)(O)CNS(=O)(=O)c1c(NC(=O)C2CC2)sc2c1CCCC2` [Example 18, N-[3-[(2-Hydroxy-2-methyl-propyl)sulfamoyl]-4,5,6,7-tetrahydrobenzothiophen-2-yl]cyclopropanecarboxamide], the IC50 lay in the range of 1 to 10 µM.

As to `CC(O)CNS(=O)(=O)c1c(NC(=O)C2CC2)sc2c1CCCC2` (centres unmarked) [Example 19, N-[3-(2-Hydroxypropylsulfamoyl)-4,5,6,7-tetrahydrobenzothiophen-2-yl]cyclopropanecarboxamide], the IC50 is below 1 µM.

On to `O=C(Nc1sc2c(c1S(=O)(=O)N1CCCC1)CCCC2)C1CC1` [Example 20, N-(3-Pyrrolidin-1-ylsulfonyl-4,5,6,7-tetrahydrobenzothiophen-2-yl)cyclopropanecarboxamide], for which the IC50 lay within 1 to 10 µM.

In the case of `O=C(Nc1sc2c(c1S(=O)(=O)NC1CC(F)C1)CCCC2)C1CC1` (centres unmarked) [Example 21, N-[3-[(3-Fluorocyclobutyl)sulfamoyl]-4,5,6,7-tetrahydrobenzothiophen-2-yl]cyclopropanecarboxamide], the IC50 was below 1 µM.

In the case of `CCCCS(=O)(=O)c1c(NC(=O)C2CC2)sc2c1CCCC2` [Example 22, N-(3-Butylsulfonyl-4,5,6,7-tetrahydrobenzothiophen-2-yl)cyclopropanecarboxamide], the IC50 fell in the range of 1 to 10 µM.

Regarding `CC(C)CNS(=O)(=O)c1c(NC(=O)C2CC2)sc2c1CC(Nc1ncccn1)CC2` (centres unmarked) [Example 23, N-[3-(Isobutylsulfamoyl)-5-(pyrimidin-2-ylamino)-4,5,6,7-tetrahydrobenzothiophen-2-yl]cyclopropanecarboxamide], the IC50 is below 1 µM.

As for `CC(C)CNS(=O)(=O)c1c(NC(=O)C2CC2)sc2c1CC(NS(C)(=O)=O)CC2` (centres unmarked) [Example 24, N-[3-(Isobutylsulfamoyl)-5-(methanesulfonamido)-4,5,6,7-tetrahydrobenzothiophen-2-yl]cyclopropanecarboxamide], the IC50 is below 1 µM.

For the molecule `CCCNS(=O)(=O)c1c(NC(=O)C2CC2)sc2c1CC(NC(=S)Nc1ccc(OC)cc1)CC2` (centres unmarked) [Example 25, N-[5-[(4-Methoxyphenyl)carbamothioylamino]-3-(propylsulfamoyl)-4,5,6,7-tetrahydrobenzothiophen-2-yl]cyclopropanecarboxamide], the IC50 was below 1 µM.

Turning to `CCCNS(=O)(=O)c1c(NC(=O)C2CC2)sc2c1CC(NC(=O)Nc1ccc(OC)cc1)CC2` (centres unmarked) [Example 26, N-[5-[(4-Methoxyphenyl)carbamoylamino]-3-(propylsulfamoyl)-4,5,6,7-tetrahydrobenzothiophen-2-yl]cyclopropanecarboxamide], the IC50 is below 1 µM.

As to `CCNC(=O)C1CCCc2c1sc(NC(=O)C1CC1)c2S(=O)(=O)NCC(C)C` (centres unmarked) [Example 27, 2-(Cyclopropanecarbonylamino)-N-ethyl-3-(isobutylsulfamoyl)-4,5,6,7-tetrahydrobenzothiophene-7-carboxamide], the IC50 lay in the range of 1 to 10 µM.

Regarding `CCNC(=O)C1CCc2sc(NC(=O)C3CC3)c(S(=O)(=O)NCC(C)C)c2C1` (centres unmarked) [Example 28, 2-(Cyclopropanecarbonylamino)-N-ethyl-3-(isobutylsulfamoyl)-4,5,6,7-tetrahydrobenzothiophene-5-carboxamide], the IC50 was below 1 µM.

Take `CCCC[S+]([O-])c1c(NC(=O)C2CC2)sc2c1CCCC2` (centres unmarked) [Example 29, N-(3-Butylsulfinyl-4,5,6,7-tetrahydrobenzothiophen-2-yl)cyclopropanecarboxamide]: the IC50 fell in the range of 1 to 10 µM.
